We go through two molecules from patent US20240059688A1, “CONOLIDINE ANALOGUES AS SELECTIVE ACKR3 MODULATORS FOR THE TREATMENT OF CANCER” (Luxembourg Institute of Health (LIH), priority 2020, published 2024).

SMILES strings stand for the structures. pEC50: −log10 of the molar value.

Holding throughout (type): cell-based
One assay addresses T1, mouse ACKR3 (Mus musculus, UniProt P56485).
T1 construct: expressed in transfected cells; host or cells: U87
Kind of assay: NanoBiT-based β-arrestin-2 recruitment assay, mouse ACKR3 in U87 cells. The following applies: for agonist efficacy at mACKR3 compared to CXCL-12: NanoBiT β-arrestin-2 recruitment, reference ligand CXCL-12; for pEC50: NanoBiT, U87 cells, FIG. 1 section C, read-out: EC50, β-arrestin-2 recruitment to mouse receptor (mACKR3). As for the experimental part: Concentration-response studies were performed with molecules WW-1 (conolidine) and WW-12 on the human and mouse ACKR3 receptors in U87 cells using a NanoBiT-based β-arrestin-2 recruitment assay […] to evaluate their efficacy and potency towards the two receptors.
Ligand-induced β-arrestin recruitment to chemokine and opioid receptors was monitored by NanoLuc complementation assay (NanoBiT, Promega). In brief, 1.2×10^6 U87 cells were plated in 10-cm culture dishes and 48 hours later co-transfected with pNBe vectors encoding GPCRs (ACKR3, MOR, DOR, KOR, or NOP) C-terminally tagged with SmBiT and human β-arrestin-1 (arrestin-2) or β-arrestin-2 (arrestin-3) N-terminally fused to LgBiT. 48 hours post-transfection cells were harvested, incubated 25 minutes at 37° C. with Nano-Glo Live Cell substrate diluted 200-fold and distributed into white 96-well plates (5×10^4 cells per well). Ligand-induced, β-arrestin to GPCRs was evaluated with a Mithras LB940 luminometer (Berthold Technologies, running on MicroWin 2010 5.19 software (Mikrotek Laborsysteme)) for 20 minutes.
For concentration-response curves (FIG. 2), the signal recorded with a saturating concentration of full agonist for each receptor was set as 100%. To evaluate the antagonist properties of ligands, full agonists of each receptor (50 nM BAM22 for MOR, 50 nM dynorphin A for KOR, 70 nM met-enkephalin for DOR, 70 nM nociceptin for NOP and 4 nM CXCL12 for ACKR3) were added after the 20-minute incubation with the ligands.

A further assay has as its target MOR (Homo sapiens, UniProt P35372). Kind of assay: MOR calcium mobilization agonist/antagonist screen (CHO-RD-HGA16 cells). Details: host or cells: CHO-RD-HGA16. The following applies: single concentration; for Emax: CHO-RD-HGA16, agonist screen, control agonist DAMGO. As for the experimental part:
Compounds were evaluated for kappa (KOR), mu (MOR), and delta (DOR) opioid receptor agonist and antagonist activity in three individual cell lines overexpressing Gαq16 (CHO-RD-HGA16, Molecular Devices) and the human kappa, mu, and delta opioid receptors, respectively. The day before the assay, cells were plated into 96-well black-walled assay plates at 30,000 cells/well in Ham's F12 supplemented with 10% fetal bovine serum, and 100 units of penicillin and streptomycin. The cells were incubated overnight at 37° C., 5% CO2. Prior to the assay, Calcium 5 dye (Molecular Devices) was reconstituted according to the manufacturer's instructions. The reconstituted dye was diluted 1:40 in pre-warmed (37° C.) assay buffer (1×HBSS, 20 mM HEPES, 2.5 mM probenecid, pH 7.4 at 37° C.). Growth medium was removed and the cells were gently washed with 100 μL of pre-warmed (37° C.) assay buffer. The cells were incubated for 45 minutes at 37° C., 5% CO2 in 200 μL of the diluted Calcium 5 dye. For the agonist screen, a single concentration of each test compound and receptor-specific controls (U69,593, DAMGO, and DPDPE for KOR, MOR, and DOR, respectively) were prepared at 10× the desired final concentration in 1% DMSO/assay buffer, aliquoted into a 96-well polystyrene plate, and warmed to 37° C. After the dye-loading incubation period, pretreatment solution was added to each well (25 μL of 9% DMSO/assay buffer) and, after 15 min, the plate was read with a FlexStation II (Molecular Devices). Calcium-mediated changes in fluorescence were monitored every 1.52 seconds over a 60 second time period, with the FlexStation II adding 50 μL of test compounds at the 19 second time point (excitation at 485 nm, detection at 525 nm). Peak kinetic reduction (SoftMax, Molecular Devices) relative fluorescence units (RFU) were used to calculate % control agonist Emax with the equation % Emax=(test compound RFU/control agonist RFU)×100. For the antagonist screens, the same procedure was followed except that the pretreatment solution consisted of the test compounds (prepared at […] the desired final concentration in 9% DMSO/assay buffer) and the FlexStation added the EC60 concentration (prepared at 10× the desired final concentration in 1% DMSO/assay buffer) of each respective control agonist. Peak RFU were used to calculate % control EC60 inhibition with the equation % inhibition=((EC60 RFU−test compound RFU)/EC60 RFU)×100. When IC50 determinations were made, the same antagonist screen procedure was followed except that cells were pretreated with 8-pt concentration-response curves of the test compounds. Peak RFU were plotted against the log of compound concentration using non-linear regression analysis to generate IC50 values (GraphPad Prism). Each test sample was analyzed in duplicate in two independent experiments.

The target of the next assay is ACKR3 (Homo sapiens, UniProt P25106). Kind of assay: ACKR3 internalization assay by flow cytometry in U87-ACKR3 cells. Details: expressed in transfected cells; host or cells: U87-ACKR3 (ACKR3-negative U87 as control). The following applies: 45 minutes at 37° C., anti-ACKR3 mAb 11G8, FIG. 6 section A. As for the experimental part: For determination of receptor surface expression levels by flow cytometry, U87-ACKR3 cells were stimulated with WW-1 or WW-12 (50, 10, 5 1 μM) or BAM22 or ctrl peptides (1 μM) for 45 minutes at 37° C. The remaining surface-bound ligands were then removed by a brief wash with 150 mM NaCl, 50 mM glycine, pH 3 and twice with FACS buffer. Cell surface levels of ACKR3 were then measured by flow cytometry using a saturating concentration of receptor-specific mAb (clones 11G8) and a secondary phycoerythrin-conjugated F(ab′)2 fragment anti-mouse IgG (Jackson ImmunoResearch). Dead cells were excluded using the Zombie NIR fixable viability dye (BioLegend, catalog #423106, dilution 1:2000). Mean fluorescence intensity was quantified on a Novocyte Quanteon flow cytometer (ACEA Biosciences) using NovoExpress 1.4.1 (ACEA Biosciences).
Chain of ACKR3 (P25106 whole entry, the tested form may be a part): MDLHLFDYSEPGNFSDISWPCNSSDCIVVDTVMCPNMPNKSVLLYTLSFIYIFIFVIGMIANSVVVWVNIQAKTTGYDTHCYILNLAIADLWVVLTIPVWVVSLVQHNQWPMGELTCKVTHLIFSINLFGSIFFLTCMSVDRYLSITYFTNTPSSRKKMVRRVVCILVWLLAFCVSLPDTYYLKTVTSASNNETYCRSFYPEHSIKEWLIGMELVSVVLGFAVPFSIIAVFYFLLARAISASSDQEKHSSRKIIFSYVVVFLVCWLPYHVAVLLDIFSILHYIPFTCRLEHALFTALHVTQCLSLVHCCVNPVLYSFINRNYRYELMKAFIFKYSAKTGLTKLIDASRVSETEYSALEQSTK

T1 sequence (P56485 whole entry): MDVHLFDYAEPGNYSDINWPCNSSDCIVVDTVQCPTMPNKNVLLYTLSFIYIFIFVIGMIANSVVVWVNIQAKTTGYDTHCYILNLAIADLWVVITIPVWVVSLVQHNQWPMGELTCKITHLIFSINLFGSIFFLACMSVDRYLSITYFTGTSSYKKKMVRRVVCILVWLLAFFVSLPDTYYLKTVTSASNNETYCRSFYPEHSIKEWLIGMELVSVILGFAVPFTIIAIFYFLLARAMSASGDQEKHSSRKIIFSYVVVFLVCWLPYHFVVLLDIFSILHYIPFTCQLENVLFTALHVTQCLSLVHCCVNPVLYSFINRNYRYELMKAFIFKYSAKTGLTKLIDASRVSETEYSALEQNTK
T1 sequence (P32121 whole entry partner): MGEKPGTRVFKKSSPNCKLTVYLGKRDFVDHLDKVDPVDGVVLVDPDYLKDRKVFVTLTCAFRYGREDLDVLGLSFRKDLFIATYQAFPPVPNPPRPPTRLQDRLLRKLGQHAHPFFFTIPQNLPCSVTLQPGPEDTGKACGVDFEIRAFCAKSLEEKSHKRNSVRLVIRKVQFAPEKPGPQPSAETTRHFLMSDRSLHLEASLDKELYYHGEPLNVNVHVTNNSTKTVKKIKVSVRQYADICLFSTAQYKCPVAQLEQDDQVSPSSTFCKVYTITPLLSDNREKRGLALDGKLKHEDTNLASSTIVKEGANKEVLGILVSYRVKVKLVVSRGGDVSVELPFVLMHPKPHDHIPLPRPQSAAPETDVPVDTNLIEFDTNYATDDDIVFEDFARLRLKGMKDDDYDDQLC
Chain of MOR (P35372 whole entry): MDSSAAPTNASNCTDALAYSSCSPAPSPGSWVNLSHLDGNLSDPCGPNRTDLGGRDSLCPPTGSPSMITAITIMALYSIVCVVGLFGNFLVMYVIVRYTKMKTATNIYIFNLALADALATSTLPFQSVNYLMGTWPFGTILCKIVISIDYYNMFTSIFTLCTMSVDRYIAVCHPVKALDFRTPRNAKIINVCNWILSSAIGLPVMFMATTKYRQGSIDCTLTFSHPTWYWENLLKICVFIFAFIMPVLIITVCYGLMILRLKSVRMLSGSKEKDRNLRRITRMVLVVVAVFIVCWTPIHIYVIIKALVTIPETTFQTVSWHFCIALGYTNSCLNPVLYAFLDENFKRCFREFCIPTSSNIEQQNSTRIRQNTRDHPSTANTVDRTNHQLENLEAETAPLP

In the case of `C/C=C1/CN2CC[C@H]1C(=O)c1[nH]c3ccccc3c1C2` [WW-1, (4E,5R)-4-ethylidene-1,4,5,7-tetrahydro-2,5-ethanoazocino[4,3-b]indol-6(3H)-one], at mouse ACKR3, the “agonist efficacy at mACKR3 compared to CXCL-12” value is given as “full agonists” and the pEC50 (as a rule, −log10 of the EC50, conventionally taken in molar units) is 4.66. Further, the Emax (usually the greatest response seen or fitted, relative to the assay's reference) at MOR was found to be 0%. Besides, the “MOR Calcium % DAMGO Inhibition” value at MOR (antagonist screen, vs EC60 of DAMGO) amounted to 3%. The “ACKR3 internalization from the plasma membrane” value on ACKR3 is “able to induce receptor internalization”.

In the case of `C/C=C1/CN(CCCCC)CC[C@H]1C(=O)c1cc2ccccc2[nH]1` [WW-12, [(3E,4R)-3-ethylidene-1-pentylpiperidin-4-yl](1H-indol-2-yl)methanone], at mouse ACKR3, the “agonist efficacy at mACKR3 compared to CXCL-12” value is reported as “full agonists” and the pEC50 was 6.05. On MOR, the Emax was 11%. The “ACKR3 internalization from the plasma membrane” value at ACKR3 is “able to induce receptor internalization”.
